Values of other authors, collected in US6417191B1, “Synergistic combinations of zidovudine, 1592U89 and 3TC” (GlaxoSmithKline, priority 1995, dated 2002).
Read-outs that look alike come from different tables or passages of the source.

Tests used:
[1] = plasma, patients, therapeutic doses of each drug as a single agent

Row | SMILES | Peak Level (in vivo) [µM] | Trough Level (in vivo) [µM] | Peak Level [1] [µM] | Trough Level [1] [µM] | activity against HIV (HIV)
1 | Nc1ccn(C2CSC(CO)O2)c(=O)n1 (racemic) [BCH-189, 4-amino-1-(2-hydroxymethyl-1,3-oxathiolan-5-yl)-(1H)-pyrimidin-2-one] | – | – | – | – | anti-HIV activity
2 | Nc1nc(NC2CC2)c2ncn([C@H]3C=C[C@@H](CO)C3)c2n1 (relative stereo) [1592U89, (1S,4R)-cis-4-[2-amino-6-(cyclopropylamino)-9H-purin-9-yl]-2-cyclopentene-1-methanol] | 3.5 | 0.1 | – | – | potent activity against HIV

Further lines, with some results ahead:

Row | Peak Level (in vivo) [µM] | Trough Level (in vivo) [µM] | Peak Level [1] [µM] | Trough Level [1] [µM] | SMILES | activity against HIV (HIV)
3 | 5 | 0.4 | – | – | Cc1cn([C@H]2C[C@H](N=[N+]=[N-])[C@@H](CO)O2)c(=O)[nH]c1=O [zidovudine, 3′-azido-3′-deoxythymidine] | –
4 | – | – | 9 | 0.7 | Nc1ccn([C@@H]2CS[C@H](CO)O2)c(=O)n1 (single isomer, unassigned) [3TC] | –
5 | 10 | 0.5 | – | – | Nc1nc(=O)n([C@@H]2CS[C@H](CO)O2)cc1F (relative stereo) [FTC, (2R,cis)-4-amino-5-fluoro-1-(2-hydroxymethyl-1,3-oxathiolan-5-yl)-(1H)-pyrimidin-2-one] | –
